# In US10226448B2, “3-(1H-pyrrolo[3,2-C]pyridin-2-yl)-1H-pyrazolo[3,4-B]pyridines and therapeutic uses thereof” (Samumed, LLC, priority 2015, dated 2019):
# Experiments:
# Assay type in all cases: cell-based
# [1] = test system: Wnt activity (Sp5-Luc reporter, TCF/LEF binding sites) in SW480 colon carcinoma cells; assay: Wnt activity screening assay: Sp5-Luc reporter gene assay in SW480 cells; settings: Homo sapiens; for EC50: Sp5-Luc reporter, SW480 cells, overnight incubation; for inhibition at 10 µM: SW480, read-out: percent inhibition at 10 μM
# Description: The screening assay for Wnt activity is described as follows. Reporter cell lines can be generated by stably transducing cancer cell lines (e.g., colon cancer) or primary cells (e.g., IEC-6 intestinal cells) with a lentiviral construct that includes a Wnt-responsive promoter driving expression of the firefly luciferase gene.
# SW480 colon carcinoma cells were transduced with a lentiviral vector expressing luciferase with a human Sp5 promoter consisting of a sequence of eight TCF/LEF binding sites. SW480 cells stably expressing the Sp5-Luc reporter gene and a hygromycin resistance gene were selected by treatment with 150 μg/mL of hygromycin for 7 days. These stably transduced SW480 cells were expanded in cell culture and used for all further screening activities. […] For Sp5-Luc reporter gene assays, the cells were plated at 4,000 cells/well in 384-well plates with medium containing 1% fetal bovine serum and incubated overnight at 37° C. and 5% CO2. Following incubation, 20 μl of BrightGlo luminescence reagent (Promega) was added to each well of the 384-well assay plates. The plates were placed on an orbital shaker for 2 min and then luminescence was quantified using the Envision (Perkin Elmer) plate reader. Readings were normalized to DMSO only treated cells, and normalized activities were utilized for EC50 calculations using the dose-response log (inhibitor) vs. response variable slope (four parameters) nonlinear regression feature available in GraphPad Prism 5.0 (or Dotmatics).
# SW480 colon cancer cells = assay: Cell viability assay (CellTiter-Blue) in SW480 colon cancer cells; settings: Homo sapiens; for EC50: 96 h, SW480 cell viability, four days, CellTiter-Blue; for inhibition at 10 µM: SW480, read-out: percent inhibition at 10 μM
# Procedure: Representative compounds were screened using the following assay procedure to assess the effect on cell viability as described below.
# Approximately 2×10^3 SW480 colon cancer cells were seeded into each well and allowed to incubate in the presence or absence of compound for four days at 37° C./5% CO2. Eight replicates of DMSO-treated cells served as controls and cells treated with compound were performed in duplicate.
# After incubation, 20 μL of CellTiter-Blue (Promega) was added to each well allowed to incubate for approximately 3 hours. This reagent was a buffered solution which contains resazurin, metabolically active cells were able to reduce rezarurin (blue) into resorufin (pink) which was highly fluorescent. This measured fluorescence was used as a readout for cell viability.
# IL-6 in THP-1 cells = assay: IL-6 inhibition in LPS-stimulated THP-1 human monocyte cells (HTRF); settings: for EC50: IL-6 inhibition, LPS-stimulated THP-1 cells, HTRF, 10-point dose-response starting from 10 μM; for inhibition at 10 µM: THP-1, read-out: percentage in parentheses beside EC50 >10
# Procedure: Compound Screening: THP-1 cells were cultured in basal media with 1% FBS for 24 hours before the start of the assay. […] THP-1 cells were plated at 5000 cells/well in the 384-well plates and incubated at 37° C. for 2 h. 500 ng/mL of LPS was added after 2 hours and cells were incubated for another 22 hours at 37° C. Plates were spun in a centrifuge for 1 minute at […] and a mixture of anti-IL6 XL665, and anti-IL6 Cryptate diluted in reconstitution buffer (Cisbio Inc.) was added to each well. Following incubation for 3 hrs at room temperature, Homogeneous Time-Resolved Fluorescence (HTRF) was measured using the Envision (Perkin Elmer) at 665 nm and […]. The ratio of fluorescence at 665 nm to 620 nm was used as a readout for IL6 quantification. All samples were processed in duplicate. Readings were normalized to DMSO treated cells and normalized activities were utilized for EC50 calculations using the dose-response log (inhibitor) vs. response variable slope (four parameters) nonlinear regression feature available in GraphPad Prism 5.0 (or Dotmatics).
# [2] = test system: LL29 cells (primary human fibroblasts derived from IPF patients), α-smooth muscle actin; assay: Inhibition of the fibrotic process: αSMA staining in TGF-β1 treated primary human fibroblasts from IPF patients (LL29 cells); settings: Fibroblast; for EC50: 96 h, LL29 cells, TGF-β1 20 ng/mL, 4 days, % αSMA positive cells; for inhibition at 10 µM: read-out: percent inhibition at 10 μM
# Procedure: Representative compounds were screened using primary human fibroblasts (derived from IPF patients) treated with TGF-β1 to determine their ability to inhibit the fibrotic process.
# LL29 cells are plated at 1,500 cells/well in 80 μL/well F12 medium supplemented with 1% Fetal Bovine Serum. […] Wells treated with TGF-β1 and containing DMSO were used as controls. […] Following incubation for 4 days, SYTOX green nucleic acid stain (Life Technologies [Thermo Fisher Scientific]) was added to the wells at a final concentration of 1 μM and incubated at room temperature for 30 min.
Structure (SMILES),EC50 [1] [nM],EC50 (SW480 colon cancer cells) [nM],EC50 (IL-6 in THP-1 cells) [nM],EC50 [2] [nM],inhibition at 10 µM [1] [%],inhibition at 10 µM (IL-6 in THP-1 cells) [%],inhibition at 10 µM (SW480 colon cancer cells) [%],inhibition at 10 µM [2] [%]
"Fc1cccc(-c2nccc3[nH]c(-c4n[nH]c5ncc(-c6cncc(CN7CCCCC7)c6)cc45)cc23)c1 [Compound 15, 3-(4-(3-Fluorophenyl)-1H-pyrrolo[3,2-c]pyridin-2-yl)-5-(5-(piperidin-1-ylmethyl)pyridin-3-yl)-1H-pyrazolo[3,4-b]pyridine]",1820,856,4780,660,,,,
"Fc1cccc(-c2nccc3[nH]c(-c4n[nH]c5ncc(-c6ccncc6)cc45)cc23)c1 [Compound 18, 3-(4-(3-Fluorophenyl)-1H-pyrrolo[3,2-c]pyridin-2-yl)-5-(pyridin-4-yl)-1H-pyrazolo[3,4-b]pyridine]",> 10000,738,> 10000,542,22.6,0,,
"Fc1cccc(-c2nccc3[nH]c(-c4n[nH]c5ncc(-c6ccccn6)cc45)cc23)c1 [Compound 28, 3-(4-(3-Fluorophenyl)-1H-pyrrolo[3,2-c]pyridin-2-yl)-5-(pyridin-2-yl)-1H-pyrazolo[3,4-b]pyridine]",1290,519,3460,752,,,,
"Cc1ccncc1-c1cnc2[nH]nc(-c3cc4c(-c5ccc(F)cc5)nccc4[nH]3)c2c1 [Compound 33, 3-(4-(4-Fluorophenyl)-1H-pyrrolo[3,2-c]pyridin-2-yl)-5-(4-methylpyridin-3-yl)-1H-pyrazolo[3,4-b]pyridine]",> 10000,1500,> 10000,553,46.5,16.4,,
"CC(C)(C)CC(=O)Nc1cncc(-c2cnc3[nH]nc(-c4cc5c(-c6ccc(F)cc6)nccc5[nH]4)c3c2)c1 [Compound 44, N-(5-(3-(4-(4-Fluorophenyl)-1H-pyrrolo[3,2-c]pyridin-2-yl)-1H-pyrazolo[3,4-b]pyridin-5-yl)pyridin-3-yl)-3,3-dimethylbutanamide]",986,700,2040,315,,,,
"CN(C)c1cncc(-c2cnc3[nH]nc(-c4cc5c(-c6cccnc6)nccc5[nH]4)c3c2)c1 [Compound 91, N,N-Dimethyl-5-(3-(4-(pyridin-3-yl)-1H-pyrrolo[3,2-c]pyridin-2-yl)-1H-pyrazolo[3,4-b]pyridin-5-yl)pyridin-3-amine]",> 10000,> 10000,> 10000,6980,41.6,32.3,3,
"FC1(F)CCN(Cc2cncc(-c3cnc4[nH]nc(-c5cc6c(-c7ccncc7)nccc6[nH]5)c4c3)c2)C1 [Compound 138, 5-(5-((3,3-Difluoropyrrolidin-1-yl)methyl)pyridin-3-yl)-3-(4-(pyridin-4-yl)-1H-pyrrolo[3,2-c]pyridin-2-yl)-1H-pyrazolo[3,4-b]pyridine]",1150,> 10000,3630,2220,,,14.3,
"CC(C)(C)C(=O)Nc1cncc(-c2cnc3[nH]nc(-c4cc5c(N6CCCCC6)nccc5[nH]4)c3c2)c1 [Compound 176, N-(5-(3-(4-(Piperidin-1-yl)-1H-pyrrolo[3,2-c]pyridin-2-yl)-1H-pyrazolo[3,4-b]pyridin-5-yl)pyridin-3-yl)pivalamide]",> 10000,> 10000,> 10000,> 10000,18.2,25.9,5.2,28.2
"CN(C)Cc1cncc(-c2cnc3[nH]nc(-c4cc5c(N6CCCCC6)nccc5[nH]4)c3c2)c1 [Compound 181, N,N-Dimethyl-1-(5-(3-(4-(piperidin-1-yl)-1H-pyrrolo[3,2-c]pyridin-2-yl)-1H-pyrazolo[3,4-b]pyridin-5-yl)pyridin-3-yl)methanamine]",> 10000,7760,> 10000,9720,20.3,41.5,,
"c1cc(-c2cnc3[nH]nc(-c4cc5c(N6CCCCC6)nccc5[nH]4)c3c2)ccn1 [Compound 186, 3-(4-(Piperidin-1-yl)-1H-pyrrolo[3,2-c]pyridin-2-yl)-5-(pyridin-4-yl)-1H-pyrazolo[3,4-b]pyridine]",> 10000,> 10000,> 10000,> 10000,30.8,25.4,11.1,0
"CN1CCN(c2nccc3[nH]c(-c4n[nH]c5ncc(-c6cncc(CN7CCC(F)(F)C7)c6)cc45)cc23)CC1 [Compound 250, 5-(5-((3,3-Difluoropyrrolidin-1-yl)methyl)pyridin-3-yl)-3-(4-(4-methylpiperazin-1-yl)-1H-pyrrolo[3,2-c]pyridin-2-yl)-1H-pyrazolo[3,4-b]pyridine]",3650,3150,400,4940,,,,
"CN1CCN(c2nccc3[nH]c(-c4n[nH]c5ncc(-c6cncnc6)cc45)cc23)CC1 [Compound 251, 3-(4-(4-Methylpiperazin-1-yl)-1H-pyrrolo[3,2-c]pyridin-2-yl)-5-(pyrimidin-5-yl)-1H-pyrazolo[3,4-b]pyridine]",> 10000,> 10000,> 10000,> 10000,17.8,35.7,8.3,24.7
"c1ccc(-c2cnc3[nH]nc(-c4cc5cnccc5[nH]4)c3c2)nc1 [Compound 280, 5-(Pyridin-2-yl)-3-(1H-pyrrolo[3,2-c]pyridin-2-yl)-1H-pyrazolo[3,4-b]pyridine]",3130,1140,3690,3870,,,,
"c1cc2[nH]c(-c3n[nH]c4ncc(-c5cncc(CN6CCCC6)c5)cc34)cc2c(-c2ccoc2)n1 [Compound 322, 3-(4-(Furan-3-yl)-1H-pyrrolo[3,2-c]pyridin-2-yl)-5-(5-(pyrrolidin-1-ylmethyl)pyridin-3-yl)-1H-pyrazolo[3,4-b]pyridine]",4050,2340,> 10000,2210,,29.4,,
"FC1(F)CCN(Cc2cncc(-c3cnc4[nH]nc(-c5cc6c(-c7ccoc7)nccc6[nH]5)c4c3)c2)C1 [Compound 334, 5-(5-((3,3-Difluoropyrrolidin-1-yl)methyl)pyridin-3-yl)-3-(4-(furan-3-yl)-1H-pyrrolo[3,2-c]pyridin-2-yl)-1H-pyrazolo[3,4-b]pyridine]",199,369,102,912,,,,
"Cc1ccncc1-c1cnc2[nH]nc(-c3cc4c(-c5cccs5)nccc4[nH]3)c2c1 [Compound 341, 5-(4-Methylpyridin-3-yl)-3-(4-(thiophen-2-yl)-1H-pyrrolo[3,2-c]pyridin-2-yl)-1H-pyrazolo[3,4-b]pyridine]",1650,1080,5110,330,,,,
